Test results published in US20020010205A1, “N-linked sulfone of heterocyclic thioester hair growth compositions and uses” (GPI NIL HOLDINGS, INC., priority 1998, published 2002).
Entries after “also recorded” stand apart in the source; their conditions may differ.

molecular target: FKBP12 (Homo sapiens, UniProt P62942); test: Ki test procedure: inhibition of peptidyl-prolyl isomerase (rotamase) activity, chymotrypsin-coupled assay; type: biochemical; conditions: apparent Ki, FKBP rotamase inhibition
Text: The inhibition of the prolyl peptidyl cis-trans isomerase activity of FKBP may be measured as an indicator of this affinity.
Inhibition of the peptidyl-prolyl isomerase (rotamase) activity of the compounds used in the inventive methods and pharmaceutical compositions can be evaluated by known methods described in the literature (Harding et al., Nature, 1989, 341:758-760; Holt et al. J. Am. Chem. Soc., 115:9923-9938). These values are obtained as apparent Ki's and are presented for representative compounds in TABLE I.
The cis-trans isomerization of an alanine-proline bond in a model substrate, N-succinyl-Ala-Ala-Pro-Phe-p-nitroanilide, is monitored spectrophotometrically in a chymotrypsin-coupled assay, which releases para-nitroanilide from the trans form of the substrate. The inhibition of this reaction caused by the addition of different concentrations of inhibitor is determined, and the data is analyzed as a change in first-order rate constant as a function of inhibitor concentration to yield the apparent Ki values.
In a plastic cuvette are added 950 Ml of ice cold assay buffer (25 mM HEPES, pH 7.8, 100 mM NaCl), […] of FKBP (2.5 mM in 10 mM Tris-Cl pH 7.5, 100 mM NaCl, 1 mM dithiothreitol), […] of chymotrypsin (50 mg/ml in 1 mM HCl) and […] of test compound at various concentrations in dimethyl sulfoxide. The reaction is initiated by the addition of 5 mL of substrate (succinyl-Ala-Phe-Pro-Phe-para-nitroanilide, 5 mg/mL in 2.35 mM LiCl in trifluoroethanol).
The absorbance at 390 nm versus time is monitored for 90 seconds using a spectrophotometer and the rate constants are determined from the absorbance versus time data files.

FKBP12, sequence (P62942 whole entry, species assumed): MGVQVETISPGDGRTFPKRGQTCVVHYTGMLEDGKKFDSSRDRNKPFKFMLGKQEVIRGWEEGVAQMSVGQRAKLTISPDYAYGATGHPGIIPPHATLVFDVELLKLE

| SMILES | Ki [nM] |
| --- | --- |
| COc1ccc(CCCSC(=O)C2CCCN2S(=O)(=O)c2ccc(C)cc2)cc1 (stereo not shown) [Compound 6] | 201 to 500 |
| O=C(SC(CCCc1ccccc1)CCCc1ccccc1)C1CCCCN1S(=O)(=O)Cc1ccccc1 (stereo not shown) [Compound 16] | 51 to 200 |
| O=C(SCCc1ccccc1)C1CCCN1S(=O)(=O)c1ccccc1 (stereo not shown) [Compound 1] | 1 to 50 |
| Cc1ccc(S(=O)(=O)N2CCCC2C(=O)SCCc2ccccc2)cc1 (stereo not shown) [Compound 3] | 51 to 200 |
| O=C(SCCCCc1ccccc1)C1CCCCN1S(=O)(=O)c1ccccc1 (stereo not shown) [Compound 10] | 1 to 50 |
| COc1cc(S(=O)(=O)N2CCCCC2C(=O)SCCCCc2ccccc2)cc(OC)c1OC (stereo not shown) [Compound 13] | 1 to 50 |
| O=C(SCCCCc1ccccc1)C1CCCCN1S(=O)(=O)Cc1ccccc1 (stereo not shown) [Compound 11] | 51 to 200 |
| Cc1ccc(S(=O)(=O)N2CCCC2C(=O)SCCC(c2ccccc2)c2ccccc2)cc1 (stereo not shown) [Compound 9] | 1 to 50 |

More lines, now with the values ahead:

| Ki [nM] | SMILES |
| --- | --- |
| 1 to 50 | O=C(SC(CCCc1ccccc1)CCCc1ccccc1)C1CCCCN1S(=O)(=O)c1ccccc1 (stereo not shown) [Compound 15] |
| 51 to 200 | O=C(SCCC(c1ccccc1)c1ccccc1)C1CCCN1S(=O)(=O)c1ccccc1 (stereo not shown) [Compound 7] |
| 51 to 200 | COc1ccc(CCCSC(=O)C2CCCN2S(=O)(=O)c2ccccc2)cc1 [Compound 4, 3-(para-Methoxyphenyl)-1-propylmercaptyl(2S)-N-(benzenesulfonyl)pyrrolidine-2-carboxylate] |
| 1 to 50 | Cc1ccc(S(=O)(=O)N2CCCCC2C(=O)SCCCCc2ccccc2)cc1 (stereo not shown) [Compound 12] |
| 1 to 50 | O=C(SCCC(c1ccccc1)c1ccccc1)C1CCCN1S(=O)(=O)Cc1ccccc1 (stereo not shown) [Compound 8] |
| 51 to 200 | COc1ccc(CCCSC(=O)C2CCCN2S(=O)(=O)Cc2ccccc2)cc1 [Compound 5, 3-(para-Methoxyphenyl)-1-propylmercaptyl (2S)-N-(α-toluenesulfonyl)pyrrolidine-2-carboxylate] |
| 51 to 200 | O=C(SCCc1ccccc1)C1CCCN1S(=O)(=O)Cc1ccccc1 (stereo not shown) [Compound 2] |
| 1 to 50 | O=C(SCCCCc1ccccc1)C1CCCCN1S(=O)(=O)C1CCCCC1 (stereo not shown) [Compound 14] |

test system: C57 black 6 mice; test: In vivo hair generation test, Experiment A (shaved C57 black 6 mice, topical); conditions: 30 μM topical in 20% propylene glycol, 3 applications over 5 days, after six weeks
Text: Care was taken not to nick or cause abrasion to the underlaying dermal layers. The animals were in anagen growth phase, as indicated by the pinkish color of the skin. […] Hair growth was quantitated by the percent of shaved area covered by new hair growth during this time period.

| SMILES | hair regrowth in shaved area |
| --- | --- |
| CCC(C)(C)C(=O)C(=O)N1CCC[C@H]1C(=O)OCCCc1cccnc1 [GPI 1046, 3-(3-pyridyl)-1-propyl (2s)-1-(3,3-dimethyl-1,2-dioxopentyl)-2-pyrrolidinecarboxylate] | essentially complete hair regrowth; also recorded: essentially, complete hair regrowth |

test system: C57 black 6 mice; test: In vivo hair generation test, Experiment B (shaved C57 Black 6 mice, topical, relative hair growth index); conditions: one micromole per milliliter topical, three times per week, 14 days after initiation of treatment
Method: Care was taken not to nick or cause abrasion to the underlying dermal layers. The animals were in anagen growth phase when shaved. […] The animals were treated three times per week, and hair growth was evaluated 14 days after initiation of treatment.

| SMILES | hair growth (relative hair growth index, FIG. 5) |
| --- | --- |
| O=C(SCCCc1ccccc1)[C@@H]1CCCN1S(=O)(=O)Cc1ccccc1 [GPI 1312] | dramatic hair growth |

test system: not given; test: not given; conditions: topical, but not oral, application; cited from earlier work

| SMILES | stimulation of hair growth |
| --- | --- |
| C=CC[C@@H]1/C=C(\C)C[C@H](C)C[C@H](OC)[C@H]2O[C@@](O)(C(=O)C(=O)N3CCCC[C@H]3C(=O)O[C@H](/C(C)=C/[C@@H]3CC[C@@H](O)[C@H](OC)C3)[C@H](C)[C@@H](O)CC1=O)[C@H](C)C[C@@H]2OC [FK506] | stimulates hair growth in a dose-dependent manner |
